Results from US9822127B2, “GAK modulators as antivirals” (Katholieke Universiteit Leuven, priority 2014, dated 2017).
In brackets after ≈: the same amount, converted by molar mass. Like-named read-outs stand apart in the source and are kept apart here.

Assays:
[1] = Cytotoxicity in CPE assay, Vero76; conditions: African green monkey
[2] = molecular target: T1, GAK (Homo sapiens, UniProt O14976); test: GAK binding assay (T7 phage kinase competition binding); conditions: for remaining binding at 10 µM: single concentration of 10 μM, lower numbers indicate stronger hits
T1 construct: made in house; host or cells: T7 phage grown in E. coli host derived from BL21
T1 sequence (O14976 1-1311): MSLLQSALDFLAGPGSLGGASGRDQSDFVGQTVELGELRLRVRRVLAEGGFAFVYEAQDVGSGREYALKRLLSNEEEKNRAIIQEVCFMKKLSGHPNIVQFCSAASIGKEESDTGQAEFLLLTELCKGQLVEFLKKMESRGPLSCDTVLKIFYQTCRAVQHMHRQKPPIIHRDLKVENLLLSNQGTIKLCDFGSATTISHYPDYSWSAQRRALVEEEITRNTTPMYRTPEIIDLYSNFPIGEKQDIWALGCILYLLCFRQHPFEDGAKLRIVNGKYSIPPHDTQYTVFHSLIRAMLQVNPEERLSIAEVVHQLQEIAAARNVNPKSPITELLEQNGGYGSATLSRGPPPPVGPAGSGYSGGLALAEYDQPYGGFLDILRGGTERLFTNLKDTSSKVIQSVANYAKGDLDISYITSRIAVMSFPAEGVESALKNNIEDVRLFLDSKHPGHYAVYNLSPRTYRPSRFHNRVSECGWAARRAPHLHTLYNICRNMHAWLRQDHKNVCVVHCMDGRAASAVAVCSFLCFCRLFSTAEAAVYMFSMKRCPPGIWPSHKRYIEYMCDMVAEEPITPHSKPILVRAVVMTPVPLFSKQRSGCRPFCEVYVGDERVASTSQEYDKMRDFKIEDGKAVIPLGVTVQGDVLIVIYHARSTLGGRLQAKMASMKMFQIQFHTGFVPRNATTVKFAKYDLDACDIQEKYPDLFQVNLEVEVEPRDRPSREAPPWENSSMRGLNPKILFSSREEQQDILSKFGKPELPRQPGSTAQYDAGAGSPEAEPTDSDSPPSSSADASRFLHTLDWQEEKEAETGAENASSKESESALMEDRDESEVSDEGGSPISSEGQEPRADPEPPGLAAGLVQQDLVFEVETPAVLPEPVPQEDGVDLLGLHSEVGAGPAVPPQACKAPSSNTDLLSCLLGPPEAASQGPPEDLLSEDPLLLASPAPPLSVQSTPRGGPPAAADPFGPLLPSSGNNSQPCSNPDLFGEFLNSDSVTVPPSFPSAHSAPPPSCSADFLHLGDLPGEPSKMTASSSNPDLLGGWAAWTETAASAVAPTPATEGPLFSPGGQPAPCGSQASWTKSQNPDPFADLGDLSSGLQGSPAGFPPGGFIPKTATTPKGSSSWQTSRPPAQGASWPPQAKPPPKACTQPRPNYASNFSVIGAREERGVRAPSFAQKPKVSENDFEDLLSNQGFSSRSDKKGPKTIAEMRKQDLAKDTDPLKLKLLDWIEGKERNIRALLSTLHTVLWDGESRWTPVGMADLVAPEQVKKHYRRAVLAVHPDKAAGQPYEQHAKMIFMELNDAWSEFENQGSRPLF

[3] = tested on: Huh-7.5 cells; test: Viability assay, alamarBlue, Huh-7.5 cells; conditions: HCVpp entry experiment
[4] = molecular target: EGFR (Homo sapiens, UniProt P00533); test: Affinity for EGFR / anti-EGFR activity; assay type: binding
Chain of EGFR (P00533 25-1210): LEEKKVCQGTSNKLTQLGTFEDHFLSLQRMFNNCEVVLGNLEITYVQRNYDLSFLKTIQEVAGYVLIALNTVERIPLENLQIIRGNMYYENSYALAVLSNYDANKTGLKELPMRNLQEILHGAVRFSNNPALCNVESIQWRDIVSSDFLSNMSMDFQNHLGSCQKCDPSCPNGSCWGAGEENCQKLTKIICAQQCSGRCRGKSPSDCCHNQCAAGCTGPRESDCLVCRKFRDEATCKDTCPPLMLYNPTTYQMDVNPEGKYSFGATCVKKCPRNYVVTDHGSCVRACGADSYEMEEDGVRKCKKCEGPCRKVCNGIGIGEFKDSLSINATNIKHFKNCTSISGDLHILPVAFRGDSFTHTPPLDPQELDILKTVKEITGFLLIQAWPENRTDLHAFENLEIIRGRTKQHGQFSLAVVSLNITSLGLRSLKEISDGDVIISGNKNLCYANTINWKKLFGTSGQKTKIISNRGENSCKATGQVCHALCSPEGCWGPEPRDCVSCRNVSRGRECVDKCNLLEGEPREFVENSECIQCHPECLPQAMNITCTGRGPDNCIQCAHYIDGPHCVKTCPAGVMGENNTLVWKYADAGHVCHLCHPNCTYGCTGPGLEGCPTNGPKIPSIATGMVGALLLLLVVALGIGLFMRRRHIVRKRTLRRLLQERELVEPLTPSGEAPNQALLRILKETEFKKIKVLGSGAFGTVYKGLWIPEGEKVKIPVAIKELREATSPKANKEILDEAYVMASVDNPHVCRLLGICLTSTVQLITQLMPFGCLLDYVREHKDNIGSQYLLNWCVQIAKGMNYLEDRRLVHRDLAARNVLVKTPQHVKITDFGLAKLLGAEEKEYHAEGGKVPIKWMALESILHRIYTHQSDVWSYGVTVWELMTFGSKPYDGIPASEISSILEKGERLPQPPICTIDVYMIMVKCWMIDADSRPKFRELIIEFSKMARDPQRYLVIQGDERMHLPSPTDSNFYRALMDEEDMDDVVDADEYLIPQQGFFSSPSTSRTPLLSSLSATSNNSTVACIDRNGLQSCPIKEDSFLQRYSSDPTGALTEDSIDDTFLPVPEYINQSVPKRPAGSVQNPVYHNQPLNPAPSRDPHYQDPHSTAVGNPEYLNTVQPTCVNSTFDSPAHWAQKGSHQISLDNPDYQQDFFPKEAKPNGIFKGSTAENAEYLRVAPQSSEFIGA

[5] = tested on: cell culture grown DENV; test: DENV infection of Huh-7 cells, Renilla luciferase assay; assay type: cell-based; conditions: Dengue virus, Huh-7, 72 h, read-out: EC50, DENV infection
[6] = tested on: Huh-7 cells; test: Viability assay, alamarBlue, DENV infected Huh-7 cells; conditions: 72 hours
[7] = tested on: HCV RNA replication; test: HCV RNA replication by luciferase assays; assay type: cell-based; conditions: 72 hours postelectroporation, daily treatment
[8] = tested on: AP2M1 phosphorylation; test: AP2M1 phosphorylation by Western analysis in Huh-7.5 cells; assay type: cell-based, human; conditions: calyculin A, vs DMSO control
[9] = tested on: Vero76; conditions: African green monkey
[10] = tested on: Huh-7.5 cells; conditions: human
[11] = in vitro; conditions: African green monkey
[12] = tested on: SARS Coronavirus (Virus strain: Urbani); test: microbe, parasite or virus in culture; assay type: cell-based
[13] = tested on: VSV-EB GFP-reporter virus (VSV bearing surface glycoprotein of EBOV); assay type: cell-based, Ebola virus
[14] = Severe acute respiratory syndrome coronavirus, Vero 76

SMILES	remaining binding at 10 µM ([2]; read-out: % Ctrl) [%]	CC50 [9] [µg/mL]	Kd [2] [µM]	CC50 [11] [µg/mL]	EC50 [12] [µg/mL]	EC50 [12, 14] [µg/mL]	also measured
COc1cc(-c2cnc3c(N4CCOCC4)snc3c2)ccc1O [Example 64, 2-methoxy-4-(3-morpholinoisothiazolo[4,3-b]pyridin-6-yl)phenol]	0	–	–	–	–	–	CC50 ([1]; CC50, Neutral Red): 0.97 µg/mL (≈ 2.82 µM); CC50 ([1]; CC50, Visual): 0.42 µg/mL (≈ 1.22 µM)
COc1cc(-c2cnc3c(N4CCOCC4)snc3c2)cc(OC)c1OC [Example 49, 4-(6-(3,4,5-Trimethoxyphenyl)isothiazolo[4,3-b]pyridin-3-yl)morpholine]	0	50 (≈ 129 µM)	0.0083	34 (≈ 87.8 µM)	0.77 (≈ 1.99 µM)	1.2 (≈ 3.1 µM)	effect on cellular viability [3]: minimal effect on cellular viability; anti-EGFR activity [4]: lack anti-EGFR activity; EC50 [5]: 0.8 µM; effect on cellular viability [6]: minimal effect on cellular viability; effect on HCV RNA replication [7]: did not affect HCV RNA replication; p-AP2M1 to AP2M1 ratios [8]: reduced by either 49 or 50 in a dose-dependent manner; CC50 [10]: 23.3 ± 3.4 µM
COc1ccc(-c2cnc3c(NCC4CC4)snc3c2)cc1OC [Example 76, N-(cyclopropylmethyl)-6-(3,4-dimethoxyphenyl)isothiazolo[4,3-b]pyridin-3-amine]	0	–	0.027	–	0.54 (≈ 1.58 µM)	0.86 (≈ 2.52 µM)	CC50 ([1]; CC50, Neutral Red): 33 µg/mL (≈ 96.7 µM); CC50 ([1]; CC50, Visual): 18 µg/mL (≈ 52.7 µM)
c1ccc(-c2cnc3c(N4CCOCC4)snc3c2)cc1 [Example 23, 3-morpholino-6-phenyl-isothiazolo[4,3-b]pyridine]	0.8	–	0.5	–	4.4 (≈ 14.8 µM)	4.5 (≈ 15.1 µM)	CC50 ([1]; CC50, Neutral Red): 50 µg/mL (≈ 168 µM); CC50 ([1]; CC50, Visual): 34 µg/mL (≈ 114 µM)
COc1ccc(-c2cnc3c(NCCc4ccccc4)snc3c2)cc1OC [Example 74, 6-(3,4-dimethoxyphenyl)-N-phenethylisothiazolo[4,3-b]pyridin-3-amine]	81	>100	–	> 100	5.8 (≈ 14.8 µM)	4.5 (≈ 11.5 µM)	–
c1cc(-c2cnc3c(N4CCOCC4)snc3c2)co1 [Example 52, 4-(6-(Furan-3-yl)isothiazolo[4,3-b]pyridin-3-yl)morpholine]	0.15	>100	–	> 100	49 (≈ 171 µM)	44 (≈ 153 µM)	–
COc1cc(-c2cnc3c(N4CCOCC4)snc3c2)ccc1N [Example 50, 2-Methoxy-4-(3-morpholinoisothiazolo[4,3-]pyridin-6-yl)aniline]	–	13 (≈ 38 µM)	0.0089	15 (≈ 43.8 µM)	3.2 (≈ 9.35 µM)	2.4 (≈ 7.01 µM)	anti-EGFR activity [4]: lack anti-EGFR activity; EC50 [5]: 2.6 µM; effect on HCV RNA replication [7]: did not affect HCV RNA replication; effect on VSV-EB infection, treatment alone [13]: minimal inhibition of infection; % of control binding at 10 µM ([2]; read-out: % Ctrl): 0%
c1cncc(-c2cnc3c(N4CCOCC4)snc3c2)c1 [Example 25, 3-morpholino-6-(3-pyridyl)-isothiazolo[4,3-b]pyridine]	25	–	–	–	–	–	–
COc1ccc(-c2cnc3c(N4CCC(O)CC4)snc3c2)cc1OC [Example 66, 1-(6-(3,4-dimethoxyphenyl)-isothiazolo[4,3-b]pyridin-3-yl)piperidin-4-ol]	–	>100	–	> 100	38 (≈ 102 µM)	50 (≈ 135 µM)	–
COc1ccc(-c2cnc3c(N)snc3c2)cc1OC [Example 6, 3-amino-6-(3,4-dimethoxyphenyl)-isothiazolo[4,3-b]pyridine]	70	–	–	–	–	–	–
COc1ccc(-c2cnc3c(N(CCO)CCO)snc3c2)cc1OC [Example 70, 2,2′-(6-(3,4-dimethoxyphenyl)isothiazolo[4,3-b]pyridin-3-ylazanediyl)diethanol]	4	–	0.32	–	–	–	–
c1csc(-c2cnc3c(N4CCOCC4)snc3c2)c1 [Example 43, 4-(6-(Thiophen-2-yl)isothiazolo[4,3-b]pyridin-3-yl)morpholine]	0.05	–	0.047	–	–	–	–
COc1cc(OC)cc(-c2cnc3c(N4CCOCC4)snc3c2)c1 [Example 48, 4-(6-(3,5-Dimethoxyphenyl)isothiazolo[4,3-b]pyridin-3-yl)morpholine]	0.2	–	–	–	–	–	–
COc1cc(-c2cnc3c(N4CCOCC4)snc3c2)ccc1OC(C)=O [Example 47, 2-Methoxy-4-(3-morpholinoisothiazolo[4,3-b]pyridin-6-yl)phenyl acetate]	0	–	–	–	–	–	–
CN1CCN(c2snc3cc(-c4ccc(F)cc4)cnc23)CC1 [Example 42, 3-(N-Me-piperazinyl)-6-(4-fluorophenyl)-isothiazolo[4,3-b]pyridine]	72	–	–	–	–	–	–
COc1ccc(-c2cnc3c(N4CCN(C)CC4)snc3c2)cc1OC [Example 40, 3-(N-Me-piperazinyl)-6-(3,4-dimethoxyphenyl)-isothiazolo[4,3-b]pyridine]	19	–	–	–	–	–	–
